The values below come from patent publication US20150352108A1, “AMINO-PYRIMIDINE COMPOUNDS AS INHIBITORS OF TBK1 AND/OR IKK EPSILON” (Alzheimer's Institute of America, priority 2009, published 2015).

Like-named read-outs stand apart in the source and are kept apart here.

One may read the IC50 as the midpoint of a concentration-inhibition curve.

For one assay, the target named is T1, TBK1 (Homo sapiens, UniProt Q9UHD2).
T1 construct: His-tag; made in house; host or cells: Sf9 insect cells
T1 sequence (Q9UHD2 1-729): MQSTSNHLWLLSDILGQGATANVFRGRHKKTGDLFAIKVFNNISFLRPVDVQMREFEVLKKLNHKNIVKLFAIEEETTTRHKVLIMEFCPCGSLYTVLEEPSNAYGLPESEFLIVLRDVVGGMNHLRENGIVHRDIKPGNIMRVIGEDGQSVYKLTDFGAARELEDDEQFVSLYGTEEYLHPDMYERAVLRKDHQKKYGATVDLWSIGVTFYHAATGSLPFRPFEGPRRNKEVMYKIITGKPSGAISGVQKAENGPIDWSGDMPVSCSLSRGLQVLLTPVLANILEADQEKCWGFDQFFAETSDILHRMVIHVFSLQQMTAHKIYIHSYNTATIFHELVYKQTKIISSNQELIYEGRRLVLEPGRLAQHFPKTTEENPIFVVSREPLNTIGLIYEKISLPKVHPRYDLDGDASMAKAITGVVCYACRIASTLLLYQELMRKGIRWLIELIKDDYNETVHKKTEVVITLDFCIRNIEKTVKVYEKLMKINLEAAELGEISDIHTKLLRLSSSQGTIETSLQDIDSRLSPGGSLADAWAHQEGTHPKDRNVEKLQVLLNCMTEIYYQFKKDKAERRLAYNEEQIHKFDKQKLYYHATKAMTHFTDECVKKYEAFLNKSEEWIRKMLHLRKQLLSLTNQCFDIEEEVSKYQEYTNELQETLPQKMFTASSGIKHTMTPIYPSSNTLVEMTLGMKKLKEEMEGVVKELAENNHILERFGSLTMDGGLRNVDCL
The assay is described as follows: In-vitro TBK1 kinase assay ([γ33]ATP filter-plate). It counts as biochemical. The gist of the method:
(§1)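 His-tagged IKKε and TBK1 from Sf9 cells were assayed with myelin basic protein or casein and [γ33]ATP at 2×Km ATP (32 μM for IKKε, 60 μM for TBK1). Enzyme was 0.1 or 0.015 μg/ml for IKKε and 0.1 or 0.02 μg/ml for TBK1 (normal/sensitized). Reactions ran 30-45 min, were filter-captured, scintillation-counted, and normalized to DMSO after background subtraction.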

The target of a further assay is T2, IKKε (Homo sapiens, UniProt Q14164).
T2 construct: His-tag; made in house; host or cells: Sf9 insect cells
T2 sequence (Q14164 1-716): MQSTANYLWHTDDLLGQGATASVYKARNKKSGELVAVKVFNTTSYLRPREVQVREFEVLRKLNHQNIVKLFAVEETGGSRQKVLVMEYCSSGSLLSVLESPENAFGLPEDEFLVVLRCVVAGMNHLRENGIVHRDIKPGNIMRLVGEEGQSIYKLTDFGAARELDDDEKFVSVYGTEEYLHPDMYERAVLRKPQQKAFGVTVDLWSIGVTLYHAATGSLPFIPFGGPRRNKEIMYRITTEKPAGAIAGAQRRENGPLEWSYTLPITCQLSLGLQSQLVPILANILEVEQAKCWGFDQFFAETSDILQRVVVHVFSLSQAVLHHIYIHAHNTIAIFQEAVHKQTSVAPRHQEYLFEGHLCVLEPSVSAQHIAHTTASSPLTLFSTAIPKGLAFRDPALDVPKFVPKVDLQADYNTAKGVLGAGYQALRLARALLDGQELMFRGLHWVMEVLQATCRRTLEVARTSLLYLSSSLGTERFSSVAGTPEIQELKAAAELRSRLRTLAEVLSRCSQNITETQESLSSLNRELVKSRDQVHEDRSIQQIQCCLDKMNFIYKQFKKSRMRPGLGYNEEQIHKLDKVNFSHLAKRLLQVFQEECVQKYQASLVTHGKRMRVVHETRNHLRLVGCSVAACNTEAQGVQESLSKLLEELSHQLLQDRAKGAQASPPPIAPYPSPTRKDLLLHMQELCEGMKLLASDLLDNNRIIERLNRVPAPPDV
The assay is described as follows: In-vitro IKKε kinase assay ([γ33]ATP filter-plate). Format: biochemical. The gist of the method:
as §1

[1] abbreviates: text bins, read-out: IC50 for inhibition of the kinase activity of TBK1.
Setting [2] is: text bins, read-out: IC50 for inhibition of the kinase activity of IKKε.

Regarding `N#Cc1cc(-c2ccnc(Nc3ccc(F)c(OCCN4CCNCC4)c3)n2)ccc1OCC1CC1` [compound 654, 2-(Cyclopropylmethoxy)-5-[2-({4-fluoro-3-[2-(piperazin-1-yl)ethoxy]phenyl}amino)pyrimidin-4-yl]benzonitrile], the figures for the IC50 at TBK1 (setting [1]) and at IKKε (setting [2]) were below 10 nM and below 5 nM, respectively.
`COc1cc(Nc2nccc(-c3ccc(O)c(C#N)c3)n2)ccc1N1CCNC(=O)C1` [compound 326, 2-Hydroxy-5-(2-{[3-methoxy-4-(3-oxopiperazin-1-yl)phenyl]amino}pyrimidin-4-yl)benzonitrile]: the IC50 at TBK1 (setting [1]) was below 10 nM; on IKKε (setting [2]), below 5 nM.
Regarding `N#Cc1cc(-c2ccnc(Nc3ccc4scnc4c3)n2)ccc1OC1CCOCC1` [Example 15, 5-[2-(1,3-benzothiazol-5-ylamino)pyrimidin-4-yl]-2-(tetrahydro-2H-pyran-4-yloxy)benzonitrile], the IC50 was below 10 nM at TBK1 (setting [1]) and below 5 nM on IKKε (setting [2]).
For `COc1cc(NC(=O)NCCO)cc(Nc2nccc(-c3ccc(OC4CCN(C(C)=O)CC4)c(C#N)c3)n2)c1` [compound 380], the values for the half-maximal inhibitory concentration (IC50) at TBK1 (setting [1]) and on IKKε (setting [2]) were 10 to 100 nM and 5 to 50 nM, respectively.
As to `COc1cccc(Nc2nccc(-c3cccc(C#N)c3)n2)c1` [compound 389, 3-{2-[(3-Methoxyphenyl)amino]pyrimidin-4-yl}benzonitrile], the IC50 at TBK1 (setting [1]) is 100 to 500 nM; on IKKε (setting [2]), 50 to 500 nM.
Take `CCN(CC)CCN(CC)C(=O)Cc1ccc(Nc2nccc(-c3ccc(NC(=O)C(C)C)c(C#N)c3)n2)cc1` [compound 425, N-[2-cyano-4-(2-{[4-(2-{[2-(diethylamino)ethyl] (ethyl)amino}-2-oxoethyl)phenyl]amino}pyrimidin-4-yl)phenyl]-2-methylpropanamide]: the IC50 was below 10 nM on TBK1 (setting [1]) and 5 to 50 nM on IKKε (setting [2]).
For `COC1CN(c2cc(Nc3nccc(-c4ccc(OC5CCOCC5)c(C#N)c4)n3)ccc2C)C1` [compound 572, 5-(2-{[3-(3-Methoxyazetidin-1-yl)-4-methylphenyl]amino}pyrimidin-4-yl)-2-(tetrahydro-2H-pyran-4-yloxy)benzonitrile], in that order: below 10 nM and below 5 nM.
For `COc1ccc(Nc2nc(-c3ccc(OC4CCOCC4)c(C#N)c3)c3nc[nH]c3n2)cc1OC` [compound 532, 5-{2-[(3,4-Dimethoxyphenyl)amino]-3H-purin-6-yl}-2-(tetrahydro-2H-pyran-4-yloxy)benzonitrile], in that order: 10 to 100 nM and 5 to 50 nM.
In the case of `CC(C)(O)COc1ccc(-c2ccnc(Nc3ccc(N4CCOCC4)cc3)n2)cc1C#N` [Example 231, 2-(2-Hydroxy-2-methylpropoxy)-5-(2-{[4-(morpholin-4-yl)phenyl]amino}pyrimidin-4-yl)benzonitrile], the results for the IC50 at TBK1 (setting [1]) and at IKKε (setting [2]) were 10 to 100 nM and below 5 nM, respectively.
As to `COc1ccc(-c2ccnc(Nc3ccc(OC4CCN(C)CC4)c(OC)c3)n2)cc1C#N` [compound 302, 2-Methoxy-5-[2-({3-methoxy-4-[(1-methylpiperidin-4-yl)oxy]phenyl}amino)pyrimidin-4-yl]benzonitrile], the results for the IC50 at TBK1 (setting [1]) and on IKKε (setting [2]) were 10 to 100 nM and 5 to 50 nM, respectively.
On to `COc1cc(NC(=O)N2CC[C@H](O)C2)cc(Nc2nccc(-c3ccc(OC)c(C#N)c3)n2)c1` [compound 294, (3S)-N-(3-{[4-(3-Cyano-4-methoxyphenyl)pyrimidin-2-yl]amino}-5-methoxyphenyl)-3-hydroxypyrrolidine-1-carboxamide], for which the IC50 is 10 to 100 nM at TBK1 (setting [1]) and 5 to 50 nM on IKKε (setting [2]).
In the case of `CC(C)(C)OC(=O)NCc1ccc(Nc2nccc(-c3ccc(OC4CCOCC4)c(C#N)c3)n2)cc1` [compound 491, tert-butyl [4-({4-[3-cyano-4-(tetrahydro-2H-pyran-4-yloxy)phenyl]pyrimidin-2-yl}amino)benzyl] carbamate], the IC50 at TBK1 (setting [1]) is below 10 nM; on IKKε (setting [2]), 5 to 50 nM.
In the case of `N#Cc1cc(-c2ccnc(Nc3ccc4c(c3)OCO4)n2)ccc1OC1CCOCC1` [Example 23, 5-[2-(1,3-benzodioxol-5-ylamino)pyrimidin-4-yl]-2-(tetrahydro-2H-pyran-4-yloxy)benzonitrile], the results for the half-inhibitory concentration (IC50) on TBK1 (setting [1]) and at IKKε (setting [2]) were below 10 nM and 5 to 50 nM, respectively.
For `C[C@H](O)C(=O)N1CCC(Oc2ccc(-c3ccnc(Nc4ccc(C(=O)NCCCN(C)C)cc4)n3)cc2C#N)CC1` [Example 4, 4-({4-[3-cyano-4-({1-[(2S)-2-hydroxypropanoyl]piperidin-4-yl}oxy)phenyl]pyrimidin-2-yl}amino)-N-[3-(dimethylamino)propyl]benzamide], in that order: below 10 nM and below 5 nM.
`COc1cc(Nc2nccc(-c3ccc(OC4CCOCC4)c(C#N)c3)n2)ccc1S(=O)(=O)N(C)CCCN(C)C` [compound 397]: the IC50 was below 10 nM at TBK1 (setting [1]) and below 5 nM on IKKε (setting [2]).
As for `CC(C)(COc1ccc(-c2ccnc(Nc3ccc(N4CCOCC4)cc3)n2)cc1C#N)C(=O)O` [compound 460, 3-[2-cyano-4-(2-{[4-(morpholin-4-yl)phenyl]amino}pyrimidin-4-yl)phenoxy]-2,2-dimethylpropanoic acid], the IC50 lay in the range of 10 to 100 nM at TBK1 (setting [1]) and 5 to 50 nM at IKKε (setting [2]).
For `CCN(CC)CCN(CC)S(=O)(=O)Cc1ccc(Nc2nccc(-c3ccc(OC4CCOCC4)c(C#N)c3)n2)cc1` [compound 412, 1-[4-({4-[3-Cyano-4-(tetrahydro-2H-pyran-4-yloxy)phenyl]pyrimidin-2-yl}amino)phenyl]-N-[2-(diethylamino)ethyl]-N-ethylmethane-sulfonamide], the IC50 at TBK1 (setting [1]) fell in the range of 10 to 100 nM; at IKKε (setting [2]), 5 to 50 nM.
Take `COc1cc(NC(=O)NC[C@H](C)O)cc(Nc2nccc(-c3ccc(OC)c(C#N)c3)n2)c1` [compound 359, 1-(3-{[4-(3-Cyano-4-methoxyphenyl)pyrimidin-2-yl]amino}-5-methoxyphenyl)-3-[(2S)-2-hydroxypropyl]urea]: the IC50 on TBK1 (setting [1]) lay in the range of 10 to 100 nM; at IKKε (setting [2]) it was 5 to 50 nM.
For `N#Cc1cc(-c2ccnc(Nc3ccc(NC(=O)NCCO)cc3)n2)ccc1OC1CCOCC1` [Example 11, 1-[4-({4-[3-cyano-4-(tetrahydro-2H-pyran-4-yloxy)phenyl]pyrimidin-2-yl}amino)phenyl]-3-(2-hydroxyethyl)urea], in that order: below 10 nM and below 5 nM.
For `N#Cc1cc(-c2ccnc(Nc3ccc(N4CCOCC4)cc3)n2)ccc1OC1CCOC1` (stereo not drawn) [Example 261, 5-(2-{[4-(Morpholin-4-yl)phenyl]amino}pyrimidin-4-yl)-2-(tetrahydrofuran-3-yloxy)benzonitrile], in that order: below 10 nM and below 5 nM.
Take `N#Cc1cc(-c2ccnc(Nc3ccc(N4CCOCC4)cc3)n2)ccc1OCc1ccccc1` [Example 179, 2-(Benzyloxy)-5-(2-{[4-(morpholin-4-yl)phenyl]amino}pyrimidin-4-yl)benzonitrile]: the 50% inhibitory concentration (IC50) is 10 to 100 nM at TBK1 (setting [1]) and 5 to 50 nM on IKKε (setting [2]).
For `Cc1ccc(Nc2nccc(-c3ccc(OC4CCOCC4)c(C#N)c3)n2)cc1N1CCOCC1` [compound 590, 5-(2-{[4-Methyl-3-(morpholin-4-yl)phenyl]amino}pyrimidin-4-yl)-2-(tetrahydro-2H-pyran-4-yloxy)benzonitrile], the IC50 was 1.2 nM on TBK1 (Table 3, read-out: TBK1 IC50); below 10 nM at TBK1 (setting [1]); 0.3 nM on IKKε (Table 3, read-out: IKKε IC50); below 5 nM on IKKε (setting [2]).
As for `N#Cc1cc(-c2ccnc(Nc3ccc(N4CCOCC4)cc3)n2)ccc1NC(=O)C1CCC1` [compound 416, N-[2-cyano-4-(2-{[4-(morpholin-4-yl)phenyl]amino}pyrimidin-4-yl)phenyl] cyclobutane-carboxamide], the IC50 at TBK1 (setting [1]) lay within 10 to 100 nM; on IKKε (setting [2]), 5 to 50 nM.
